Experimental data as given in US8513446B2, “Stable crystal modifications of DOPC” (Merck Patent GmbH, priority 2008, dated 2013).
Values belong to the molecule of their own block, whether it stands above or below them.

How the values were obtained:
[1] = Hygroscopicity of solid DOPC; format: physicochemical
Text: In addition, waxy DOPC can only be comminuted with difficulty and, like lyophilised DOPC, can only be weighed out with difficulty. This makes handling of this compound much more difficult.

[2] = stored under a protective gas at −20° C.; cited from earlier work
[3] = Storage stability of crystalline DOPC, residual content by HPLC; format: physicochemical; conditions: exclusion of air
Description: In order to determine the stability of crystalline DOPC, the substances are stored together with comparative samples at 25° C. and 60% relative humidity and at 40° C. and 75% relative humidity with exclusion of air. The residual content of DOPC is measured at periodic intervals and indicated compared with the initial value. Purity and content of DOPC are determined by HPLC. For the type I crystal modification, the following values were found: […]

[4] = 25° C./60% relative humidity, storage time 0 months
[5] = 25° C./60% relative humidity, storage time 3 months
[6] = 25° C./60% relative humidity, storage time 6 months
[7] = 25° C./60% relative humidity, storage time 9 months
[8] = 25° C./60% relative humidity, storage time 12 months
[9] = 25° C./60% relative humidity, storage time 18 months
[10] = 40° C./75% relative humidity, storage time 0 months
[11] = 40° C./75% relative humidity, storage time 3 months
[12] = 40° C./75% relative humidity, storage time 6 months
[13] = 40° C./75% relative humidity, storage time 9 months
[14] = 40° C./75% relative humidity, storage time 12 months

hygroscopicity [1]: extremely hygroscopic
SMILES: CCCCCCCC/C=C\CCCCCCCC(=O)OC[C@H](COP(=O)([O-])OCC[N+](C)(C)C)OC(=O)CCCCCCC/C=C\CCCCCCCC [amorphous DOPC, reference compound]

SMILES: CCCCCCCC/C=C\CCCCCCCC(=O)OC[C@H](COP(=O)([O-])OCC[N+](C)(C)C)OC(=O)CCCCCCC/C=C\CCCCCCCC [lyophilised DOPC]
guaranteed shelf life [2]: about 12 months

purity of DOPC (HPLC) compared with the initial value [3, 4]: 100.0 Area-%
residual content of DOPC compared with the initial value [3, 4]: 100.0 % by weight
purity of DOPC (HPLC) compared with the initial value [3, 5]: 100.0 Area-%
residual content of DOPC compared with the initial value [3, 5]: 100.9 % by weight
purity of DOPC (HPLC) compared with the initial value [3, 6]: 100.0 Area-%
residual content of DOPC compared with the initial value [3, 6]: 99.3 % by weight
purity of DOPC (HPLC) compared with the initial value [3, 7]: 100.0 Area-%
residual content of DOPC compared with the initial value [3, 7]: 100.8 % by weight
purity of DOPC (HPLC) compared with the initial value [3, 8]: 99.7 Area-%
residual content of DOPC compared with the initial value [3, 8]: 100.4 % by weight
purity of DOPC (HPLC) compared with the initial value [3, 9]: 99.8 Area-%
residual content of DOPC compared with the initial value [3, 9]: 100.6 % by weight
purity of DOPC (HPLC) compared with the initial value [3, 10]: 100.0 Area-%
residual content of DOPC compared with the initial value [3, 10]: 100.0 % by weight
purity of DOPC (HPLC) compared with the initial value [3, 11]: 99.9 Area-%
residual content of DOPC compared with the initial value [3, 11]: 100.0 % by weight
purity of DOPC (HPLC) compared with the initial value [3, 12]: 99.8 Area-%
residual content of DOPC compared with the initial value [3, 12]: 98.4 % by weight
purity of DOPC (HPLC) compared with the initial value [3, 13]: 99.8 Area-%
residual content of DOPC compared with the initial value [3, 13]: 99.8 % by weight
purity of DOPC (HPLC) compared with the initial value [3, 14]: 99.7 Area-%
residual content of DOPC compared with the initial value [3, 14]: 99.5 % by weight
SMILES: CCCCCCCC/C=C\CCCCCCCC(=O)OC[C@H](COP(=O)([O-])OCC[N+](C)(C)C)OC(=O)CCCCCCC/C=C\CCCCCCCC [type I crystalline (R)-DOPC, 1,2-dioleoyl-sn-glycero-3-phosphocholine]

hygroscopicity [1]: improved hygroscopicity
SMILES: CCCCCCCC/C=C\CCCCCCCC(=O)OC[C@H](COP(=O)([O-])OCC[N+](C)(C)C)OC(=O)CCCCCCC/C=C\CCCCCCCC [Crystalline DOPC]
